In the NIST ThermoML archive (doi:10.1021/acs.jced.5b01023):
“And” between values parts separate entries of the source, which are not always exact repeats. Identical values can stand only once. ± gives the expanded uncertainty stated by the source.

How the values were obtained:
[1] = xn = mol fraction of the nth substance listed; details: for viscosity / mass density: 101 kPa, Liquid; for viscosity: Capillary tube (Ostwald / Ubbelohde) method; for mass density: Vibrating tube method
[2] = refractive index (Na D-line) (dimensionless); xn = mol fraction of the nth substance listed; details: 101 kPa, Liquid, Standard Abbe refractometry, x2 = 0
[3] = for viscosity / mass density: 101 kPa, Liquid; for viscosity: Capillary tube (Ostwald / Ubbelohde) method; for mass density: Vibrating tube method
[4] = refractive index (Na D-line) (dimensionless); details: 101 kPa, Liquid, Standard Abbe refractometry

CO [methanol] + CC(=O)[O-].CCn1cc[n+](C)c1
[1], Wilhelmy plate, x2 = 0
Details	surface tension liquid-gas [mN/m]
278.2 K	23.8 ± 0.6
288.2 K	23.6 ± 0.6
298.2 K	22.7 ± 0.6
308.2 K	21.9 ± 0.6
318.2 K	21 ± 0.6

CCCO [propan-1-ol] + CC(=O)[O-].CCn1cc[n+](C)c1
[1], Wilhelmy plates, x2 = 0
Details	surface tension liquid-gas [mN/m]
288.15 K	23.9 ± 0.6
298.15 K	23.4 ± 0.6
308.15 K	22.4 ± 0.6
318.15 K	22 ± 0.6
328.15 K	20.9 ± 0.6
338.15 K	19.7 ± 0.6
348.15 K	19 ± 0.6

[1], x2 = 0
Details	mass density [kg/m3]	viscosity [mPa·s]
288.15 K	807.55 ± 0.14	2.506 ± 0.029
298.15 K	799.56 ± 0.14	1.952 ± 0.023
308.15 K	791.46 ± 0.15	1.545 ± 0.018
318.15 K	783.2 ± 0.15	1.238 ± 0.014
328.15 K	774.72 ± 0.16	1.006 ± 0.012
338.15 K	765.98 ± 0.16	0.824 ± 0.01
348.15 K	756.91 ± 0.16	0.684 ± 0.008

[2]
Details	refractive index
288.15 K	1.38694 ± 0.00035
298.15 K	1.38303 ± 0.00035
308.15 K	1.37914 ± 0.00035
318.15 K	1.375 ± 0.00035
328.15 K	1.37075 ± 0.00035
338.15 K	1.36667 ± 0.00035
348.15 K	1.36201 ± 0.00035

CC(C)O [propan-2-ol] + CC(=O)[O-].CCn1cc[n+](C)c1
[1], Wilhelmy plates, x2 = 0
Details	surface tension liquid-gas [mN/m]
288.15 K	21.6 ± 0.6
298.15 K	21.2 ± 0.6
308.15 K	20.5 ± 0.6
318.15 K	19.6 ± 0.6
328.15 K	18.7 ± 0.6
338.15 K	17.4 ± 0.6

[1], x2 = 0
Details	mass density [kg/m3]	viscosity [mPa·s]
288.15 K	789.18 ± 0.19	2.752 ± 0.033
298.15 K	780.84 ± 0.19	2.018 ± 0.024
308.15 K	772.23 ± 0.19	1.507 ± 0.018
318.15 K	763.27 ± 0.2	1.15 ± 0.014
328.15 K	753.89 ± 0.2	0.895 ± 0.011
338.15 K	744.02 ± 0.2	0.704 ± 0.009

[2]
Details	refractive index
288.15 K	1.37933 ± 0.004
298.15 K	1.37517 ± 0.004
308.15 K	1.37093 ± 0.004
318.15 K	1.36643 ± 0.004
328.15 K	1.36173 ± 0.004
338.15 K	1.35682 ± 0.004

CO [methanol]
[3], Wilhelmy plate
Details	surface tension liquid-gas [mN/m]
278.2 K	23.8 ± 0.6
288.2 K	23.6 ± 0.6
298.2 K	22.7 ± 0.6
308.2 K	21.9 ± 0.6
318.2 K	21 ± 0.6

CC(C)O [propan-2-ol]
Details	mass density, [3] [kg/m3]	refractive index, [4]	viscosity, [3] [mPa·s]
288.15 K	789.18 ± 0.19	1.37933 ± 0.00036	2.752 ± 0.033
298.15 K	780.84 ± 0.19	1.37517 ± 0.00036	2.018 ± 0.024
308.15 K	772.23 ± 0.19	1.37093 ± 0.00036	1.507 ± 0.018
318.15 K	763.27 ± 0.2	1.36643 ± 0.00036	1.15 ± 0.014
328.15 K	753.89 ± 0.2	1.36173 ± 0.00036	0.895 ± 0.011
338.15 K	744.02 ± 0.2	1.35682 ± 0.00036	0.704 ± 0.009

[3], Wilhelmy plates
Details	surface tension liquid-gas [mN/m]
288.15 K	21.6 ± 0.6
298.15 K	21.2 ± 0.6
308.15 K	20.5 ± 0.6
318.15 K	19.6 ± 0.6
328.15 K	18.7 ± 0.6
338.15 K	17.4 ± 0.6

CC(=O)[O-].CCn1cc[n+](C)c1 [1-ethyl-3-methylimidazolium acetate]
Details	mass density, [3] [kg/m3]	refractive index, [4]	viscosity, [3] [mPa·s]
288.15 K	1105.2 ± 1.4	1.50285 ± 0.00053	283.8 ± 8.9
298.15 K	1099.03 ± 1.4	1.50069 ± 0.00053	139 ± 3.1
308.15 K	1092.93 ± 1.3	1.49803 ± 0.00053	77.32 ± 1.3
318.15 K	1086.86 ± 1.3	1.49527 ± 0.00053	47.37 ± 0.73
328.15 K	1080.82 ± 1.3	1.49266 ± 0.00053	31.29 ± 0.48
338.15 K	1074.83 ± 1.3	1.48995 ± 0.00053	21.85 ± 0.33
348.15 K	1068.88 ± 1.3	1.48721 ± 0.00053	16.01 ± 0.24

[3], Wilhelmy plates
Details	surface tension liquid-gas
278.2 K	48.1 ± 0.8 mN/m
288.15 K	47.7 ± 0.8 mN/m
298.15 K	47.1 ± 0.8 mN/m
308.15 K	46.6 ± 0.8 mN/m and 46.1 ± 0.8 mN/m
318.15 K	46.1 ± 0.8 mN/m
328.15 K	45.9 ± 0.8 mN/m
338.15 K	45.4 ± 0.8 mN/m
348.15 K	45.1 ± 0.8 mN/m

CCCO [propan-1-ol]
Details	mass density, [3] [kg/m3]	refractive index, [4]	viscosity, [3] [mPa·s]
288.15 K	807.55 ± 0.14	1.38694 ± 0.00035	2.506 ± 0.029
298.15 K	799.56 ± 0.14	1.38303 ± 0.00035	1.952 ± 0.023
308.15 K	791.46 ± 0.15	1.37914 ± 0.00035	1.545 ± 0.018
318.15 K	783.2 ± 0.15	1.375 ± 0.00035	1.238 ± 0.014
328.15 K	774.72 ± 0.16	1.37075 ± 0.00035	1.006 ± 0.012
338.15 K	765.98 ± 0.16	1.36667 ± 0.00035	0.824 ± 0.01
348.15 K	756.91 ± 0.16	1.36201 ± 0.00035	0.684 ± 0.008

[3], Wilhelmy plates
Details	surface tension liquid-gas [mN/m]
288.15 K	23.9 ± 0.6
298.15 K	23.4 ± 0.6
308.15 K	22.4 ± 0.6
318.15 K	22 ± 0.6
328.15 K	20.9 ± 0.6
338.15 K	19.7 ± 0.6
348.15 K	19 ± 0.6

CC(=O)[O-].CCn1cc[n+](C)c1 [1-ethyl-3-methylimidazolium acetate] + CO
surface tension liquid-gas [mN/m], [1], Wilhelmy plate
Details	x1 = 0.1	x1 = 0.2	x1 = 0.3	x1 = 0.4	x1 = 0.5	x1 = 0.6	x1 = 0.6999	x1 = 0.8003	x1 = 0.9003	x1 = 1
278.2 K	28.5 ± 0.6	32.7 ± 0.6	35.9 ± 0.6	38.4 ± 0.6	40.3 ± 0.7	42.1 ± 0.7	44.3 ± 0.7	45.9 ± 0.7	47.6 ± 0.7	48.1 ± 0.8
288.2 K	28.1 ± 0.6	32.1 ± 0.6	35.3 ± 0.6	38 ± 0.6	40 ± 0.7	41.6 ± 0.7	43.8 ± 0.7	45.1 ± 0.7	46.9 ± 0.7	47.7 ± 0.8
298.2 K	27.5 ± 0.6	31.6 ± 0.6	35 ± 0.6	37.5 ± 0.6	39.6 ± 0.7	41.1 ± 0.7	43.3 ± 0.7	44.7 ± 0.7	46.4 ± 0.7	47.1 ± 0.8
308.2 K	26.8 ± 0.6	31.1 ± 0.6	34.5 ± 0.6	37.1 ± 0.6	39 ± 0.7	40.8 ± 0.7	42.8 ± 0.7	44.2 ± 0.7	45.9 ± 0.7	46.6 ± 0.8
318.2 K	26.3 ± 0.6	30.6 ± 0.6	33.9 ± 0.6	36.5 ± 0.6	38.7 ± 0.6	40.4 ± 0.7	42.4 ± 0.7	43.9 ± 0.7	45.3 ± 0.7	46.1 ± 0.8
